Literature values as cited in PMC11437099 (Nature Communications, 2024).
Where two headings read alike, the source gives them in different places.

Assays:
[1] = tested on: patients with type 2 diabetes
[2] = tested on: patients with type 2 diabetes; remark: listed apart in the source

## dulaglutide: approved GLP-1 analog (Trulicity)
[1]; 0.75 and 1.5 mg at 26 weeks
  HbA1c change from baseline: −1.25 to −1.46%
  Participants achieving HbA1c <7.0%: 63–72%
[2]; 0.75 and 1.5 mg doses at 26 weeks
  Body weight change from baseline: −1.0 to −1.5 kg

## liraglutide: approved GLP-1 analog (Victoza, Saxenda) (HAEGTFTSDVSSYLEGQAAKEFIAWLVRGRG; chains of the INN, looked up)
[1]; 1.2 and 1.8 mg at 52 weeks
  Participants achieving HbA1c <7.0%: 43–51%
[2]; 1.2 and 1.8 mg at 52 weeks
  Body weight change (weight loss): −2.05 to −2.45 kg
